From ChEMBL document CHEMBL3804804, “Synthesis and antimycobacterial activity of N-(2-aminopurin-6-yl) and N-(purin-6-yl) amino acids and dipeptides” (Bioorg Med Chem Lett, 2016) come the findings set out here.

Test [1] has as its system Mycobacterium tuberculosis. In words: Antimycobacterial activity against Mycobacterium tuberculosis H37Rv after 10 days by micro broth dilution method. In kind it is functional. The conditions noted are these: 240 h.
Test [2] in a line: Cytotoxicity against human FEH cells after 72 hrs by MTT assay. In kind it is cell-based. A general note: Tetrazolium dyes change colour on reduction, which living cells bring about.
The test system of test [3] is Mycolicibacter terrae. In words: Antimycobacterial activity against Mycobacterium terrae after 10 days by micro broth dilution method. The conditions noted are these: 240 h. The class given is functional. Background: Broth dilution looks for growth in wells or tubes with falling amounts of substance.
In test [4] the test system is Mycobacterium avium. In words: Antimycobacterial activity against Mycobacterium avium after 10 days by micro broth dilution method. In kind it is functional. The conditions noted are these: 240 h.

As usually defined, the MIC is the lowest concentration found to suppress growth. A low value points to greater potency. For orientation: IC50 means the concentration that gives 50% inhibition. The low end stands for greater potency in that assay, the high end for weaker potency in that assay.

Converted amounts (≈) assume the structure as drawn.

On to `C[C@H](NC(=O)CNc1nc(N)nc2[nH]cnc12)C(=O)O.O`, for which the MIC in test [1] was 6.25 µg/mL.
For the compound `O=C(O)CNc1ncnc2[nH]cnc12`, in test [1], the MIC was 6.25 µg/mL (≈ 32.4 µM).
Compound `COC(=O)C[C@H](NC(=O)CNc1nc(NC(C)=O)nc2[nH]cnc12)C(=O)OC` returned a minimum inhibitory concentration (MIC) in test [1] of 12.5 µg/mL (≈ 31.8 µM).
Compound `CC(=O)Nc1nc(N[C@H](C(=O)OC(C)(C)C)C(C)C)c2nc[nH]c2n1` gave a minimum inhibitory concentration (MIC) in test [1] of 12.5 µg/mL (≈ 35.9 µM).
The same measure, in the same setting: the value for `O=C(O)CCCNc1ncnc2[nH]cnc12` was 12.5 µg/mL (≈ 56.5 µM).
In test [2], `COC(=O)[C@H](CCSC)NC(=O)CNc1nc(NC(C)=O)nc2[nH]cnc12` displayed a half-maximal inhibitory concentration (IC50) of over 50 µM. Besides, the minimal inhibitory concentration (MIC) in test [3] amounted to 1.5 µg/mL (≈ 3.79 µM); in test [1] it was 3.1 µg/mL (≈ 7.84 µM); in test [4] it was 3.1 µg/mL (≈ 7.84 µM).
The compound `O.O=C(O)CC[C@H](NC(=O)CNc1ncnc2[nH]cnc12)C(=O)O` returned an IC50 in test [2] of over 50 µM. Besides, the minimal inhibitory concentration (MIC) in test [3], in test [1] and in test [4] was 0.7 µg/mL in each case.
Consider `Nc1nc(NCC(=O)N[C@@H](CCC(=O)O)C(=O)O)c2nc[nH]c2n1`, for which the IC50 in test [2] was over 50 µM. Also, the minimal inhibitory concentration (MIC) in test [3] was 0.35 µg/mL (≈ 1.04 µM); in test [1], 0.7 µg/mL (≈ 2.08 µM); in test [4], 0.35 µg/mL (≈ 1.04 µM).
`Nc1nc(N2CCC[C@H]2C(=O)O)c2nc[nH]c2n1` displayed an MIC in test [1] of 12.5 µg/mL (≈ 50.4 µM).
As for `Nc1nc(N[C@@H](Cc2ccccc2)C(=O)O)c2nc[nH]c2n1`, in test [1], the MIC came out at 12.5 µg/mL (≈ 41.9 µM).
Regarding `COC(=O)CC[C@H](NC(=O)CNc1ncnc2[nH]cnc12)C(=O)OC`, it took 12.5 µg/mL (≈ 35.7 µM) to inhibit growth in test [1] (MIC).
In test [2], `CC(C)[C@H](Nc1nc(N)nc2[nH]cnc12)C(=O)O` gave a half-maximal inhibitory concentration (IC50) of over 50 µM. For the same compound, the minimum inhibitory concentration (MIC) in test [3], in test [1] and in test [4] was 6.25 µg/mL (≈ 25 µM) in each case.
Turning to `CC(C)C[C@H](NC(=O)CNc1nc(N)nc2[nH]cnc12)C(=O)O.O`, the MIC in test [1] amounted to 12.5 µg/mL.
As to `Nc1nc(NCC(=O)N[C@@H](Cc2ccccc2)C(=O)O)c2nc[nH]c2n1.O.O`, the MIC in test [1] worked out at 6.25 µg/mL.
The same measure, in the same setting: then `COC(=O)[C@H](CC(C)C)NC(=O)CNc1nc(NC(C)=O)nc2[nH]cnc12`, with 12.5 µg/mL (≈ 33.1 µM); and `CC(=O)Nc1nc(N[C@@H](Cc2ccccc2)C(=O)OC(C)(C)C)c2nc[nH]c2n1`, with 12.5 µg/mL (≈ 31.5 µM); and `O=C(O)CCCCCNc1ncnc2[nH]cnc12`, with 12.5 µg/mL (≈ 50.1 µM).
On to `CC1COc2c(N3CCN(C)CC3)c(F)cc3c(=O)c(C(=O)O)cn1c23` (stereo unspecified) [OFLOXACIN], for which the MIC in test [3], in test [1] and in test [4] was 0.1 µg/mL (≈ 0.277 µM) throughout.
For the compound `COC(=O)[C@H](CC(C)C)NC(=O)CNc1ncnc2[nH]cnc12`, the MIC in test [1] came to 12.5 µg/mL (≈ 39 µM).
For `COC(=O)[C@H](Cc1ccccc1)NC(=O)CNc1ncnc2[nH]cnc12`, in test [2], the IC50 is over 50 µM. Also, the MIC in test [3], in test [1] and in test [4] was 1.5 µg/mL (≈ 4.23 µM) each time.
As for `CC(=O)Nc1nc(N2CCC[C@H]2C(=O)OC(C)(C)C)c2nc[nH]c2n1`, the IC50 in test [2] is over 50 µM. Also, the MIC in test [3], in test [1] and in test [4] was 6.25 µg/mL (≈ 18 µM) throughout.
Consider `O=C(O)CCNc1[nH]cnc2ncnc1-2`, for which the MIC in test [1] is 12.5 µg/mL (≈ 60.3 µM).
As for `Nc1nc(NCC(=O)N[C@@H](CC(=O)O)C(=O)O)c2nc[nH]c2n1`, in test [1], the minimal inhibitory concentration (MIC) stood at 12.5 µg/mL (≈ 38.7 µM).
The compound `C[C@H](NC(=O)CNc1ncnc2[nH]cnc12)C(=O)O.O` had an MIC in test [1] of 12.5 µg/mL.
As to `COC(=O)[C@H](C)NC(=O)CNc1nc(NC(C)=O)nc2[nH]cnc12.O`, inhibition of growth in test [1] (MIC) required 12.5 µg/mL.
Same read-out and setting: the value for `Nc1nc(NCC(=O)O)c2nc[nH]c2n1` was 12.5 µg/mL (≈ 60 µM); that for `CC(C)[C@H](NC(=O)CNc1nc(N)nc2[nH]cnc12)C(=O)O.O.O` was 12.5 µg/mL.
`C[C@H](Nc1nc(N)nc2[nH]cnc12)C(=O)O`: the MIC in test [1] worked out at 12.5 µg/mL (≈ 56.3 µM).
For `COC(=O)CNc1nc(N)nc2[nH]cnc12.Cl.Cl`, the IC50 in test [2] is over 50 µM. Also, the MIC in test [3], in test [1] and in test [4] was 6.25 µg/mL in each case.
As for `CC(C)C[C@H](NC(=O)CNc1ncnc2[nH]cnc12)C(=O)O.O`, inhibition of growth in test [1] (MIC) required 12.5 µg/mL.
The compound `COC(=O)[C@@H](NC(=O)CNc1nc(NC(C)=O)nc2[nH]cnc12)C(C)C` returned an MIC in test [1] of 12.5 µg/mL (≈ 34.4 µM).
`O.O=C(CNc1ncnc2[nH]cnc12)N[C@@H](Cc1ccccc1)C(=O)O`: the IC50 in test [2] is over 50 µM. In addition, the lowest concentration to inhibit growth in test [1] (MIC) was 3.1 µg/mL.
As for `NNC(=O)c1ccncc1` [ISONIAZID], the MIC in test [3], in test [1] and in test [4] was 0.1 µg/mL (≈ 0.729 µM) in each case.
`CC(C)[C@H](NC(=O)CNc1ncnc2[nH]cnc12)C(=O)O.O` displayed an MIC in test [1] of 12.5 µg/mL.
In turn, `CC(=O)Nc1nc(N[C@@H](C)C(=O)OC(C)(C)C)c2nc[nH]c2n1` showed an MIC in test [1] of 12.5 µg/mL (≈ 39 µM).
In test [2], `CC(=O)Nc1nc(NCC(=O)O)c2nc[nH]c2n1` showed an IC50 of over 50 µM. Further, the MIC in test [3], in test [1] and in test [4] was 0.7 µg/mL (≈ 2.8 µM) throughout.
In test [2], `CSCC[C@H](NC(=O)CNc1nc(N)nc2[nH]cnc12)C(=O)O.O` had an IC50 of over 50 µM. The minimal inhibitory concentration (MIC) in test [3], in test [1] and in test [4] was 3.1 µg/mL each time.
`COC(=O)CC[C@H](NC(=O)CNc1nc(NC(C)=O)nc2[nH]cnc12)C(=O)OC` returned an MIC in test [1] of 12.5 µg/mL (≈ 30.7 µM).
`COC(=O)[C@H](CCSC)NC(=O)CNc1ncnc2[nH]cnc12` yielded an MIC in test [1] of 12.5 µg/mL (≈ 36.9 µM).
Turning to `COC(=O)[C@H](Cc1ccccc1)NC(=O)CNc1nc(NC(C)=O)nc2[nH]cnc12`, in test [1], it took 12.5 µg/mL (≈ 30.4 µM) to inhibit growth (MIC).
Same read-out and setting: then `COC(=O)[C@H](C)NC(=O)CNc1ncnc2[nH]cnc12`, with 12.5 µg/mL (≈ 44.9 µM); and `CC(=O)Nc1nc(N[C@@H](CC(=O)OC(C)(C)C)C(=O)OC(C)(C)C)c2nc[nH]c2n1`, with 12.5 µg/mL (≈ 29.7 µM).
Still for that read-out and setting: the value for `COC(=O)[C@@H](NC(=O)CNc1ncnc2[nH]cnc12)C(C)C` was 12.5 µg/mL (≈ 40.8 µM).
With `CSCC[C@H](NC(=O)CNc1ncnc2[nH]cnc12)C(=O)O.O`, the MIC in test [1] is 12.5 µg/mL.
